Laboratory results: PMC12192077, “Leveraging Neural ODEs for Population Pharmacokinetics of Dalbavancin in Sparse Clinical Data” (Entropy, 2025)
Like-named read-outs stand apart in the source and are kept apart here.

Experiments:
[1] = clinical; conditions: in vivo
Text: The dataset used in this study was collected from a cohort of 218 patients undergoing Dalbavancin treatment and who underwent therapeutic drug monitoring (TDM) of Dalbavancin at the IRCCS, Azienda Ospedaliero Universitaria di Bologna between April 2021 and December 2024. Dalbavancin is a long-acting antibiotic used for the treatment of skin and soft tissue infections and as a second-line agent in patients with staphylococcal infections, such as bone and joint infections, vascular prosthetic joint infections and endocarditis. At our center, Dalbavancin plasma exposure is optimized by means of TDM, which is the medical practice of measuring drug concentration in plasma in order to guide drug dosing for attaining a pre-defined target of efficacy. Dalbavancin is a semisynthetic lipoglycopeptide derived from the teicoplanin-like antibiotic A-40926, which is an agent naturally produced by the actinomycete Nonomuria spp. […] The long lipophilic side chain in the Dalbavancin molecule serves a dual purpose by both extending the half-life, as well as anchoring the compound to the membrane, which enhances its antimicrobial activity.
The data acquisition process involved recording patient covariates, drug administration details and serial blood sampling for pharmacokinetic analysis. Dalbavancin doses ranged from 350mg to 1500mg , with a total of 703 administrations recorded. Blood samples were obtained at various time points following drug administration, resulting in 669 concentration measurements. Standardized laboratory procedures were followed for quantifying Dalbavancin levels in plasma, ensuring accuracy and consistency across all samples.
To ensure robust model evaluation, we employed a cross-validation approach. Given the dataset size and the need for a balance between the training and validation data, we opted for a 6-fold cross-validation framework. This choice provides a good trade-off between statistical reliability and computational efficiency, allowing each model to be trained and validated on multiple subsets of the data while maintaining a sufficient amount of training data per fold.
Since the compartment models are systems of differential equations, the replacement of these equations with an NN is direct:(2a) dCc/dt=−CcCl/V1−CcQ/V1+CpQ/V2dCp/dt=CcQ/V1−CpQ/V2 (2b) dh(t)/dt=fnn(h(t),t;θ) The differential equation systems (2a) represent a simple two-compartment model with the four parameters that need to be fitted: V1 and V2 are the volumes of the central and peripheral compartments, Cl the clearance, Q the intercompartmental clearance and Cc and Cp the concentrations of the two compartments.
In addition to the main FNN, the model includes an additional parameter, the distribution volume ( VNODE ), which is learned through gradient descent with the whole FNN. […]

[2] = in vivo; cited from earlier work

With `CN[C@H]1C(=O)N[C@@H]2Cc3ccc(cc3)Oc3cc4cc(c3O[C@@H]3O[C@H](C(=O)O)[C@@H](O)[C@H](O)[C@H]3NC(=O)CCCCCCCCC(C)C)Oc3ccc(cc3Cl)[C@@H](O)[C@@H]3NC(=O)[C@H](NC(=O)[C@@H]4NC(=O)[C@@H](NC2=O)c2cc(cc(O)c2Cl)Oc2cc1ccc2O)c1ccc(O)c(c1)-c1c(O[C@H]2O[C@H](CO)[C@@H](O)[C@H](O)[C@@H]2O)cc(O)cc1[C@@H](C(=O)NCCCN(C)C)NC3=O` [Dalbavancin] the clearance ([1]; human, Cl (clearance), SD) was 0.9 mL/min, the “Cl (clearance)” value ([1]; human, SD) was 0.0367 ± 0.0006 L/h and the “VNODE (distribution volume)” value [1] was 5.7 ± 0.1 L. The “VNODE,cov (distribution volume)” value ([1]; SD) was 5.2 ± 0.8 L, the “Cl (clearance)” value [2] was 0.031 ± 0.004 L/h and the “Q (intercompartmental clearance)” value [2] was 0.038 ± 0.013 L/h. The “V1 (volume of central compartment)” value [2] was 5.9 ± 0.3 L and the “V2 (volume of peripheral compartment)” value [2] was 9.6 ± 1.4 L.
